Data: patent publication US11666589B2, “Pivarubicin and benzarubicin compositions” (Paradox Pharmaceuticals, Inc., priority 2020, dated 2023)

Key:
32D.3 cells = assay: Analysis of apoptosis (cytochrome c release immunoblot, TUNEL); type: cell-based, murine; details: 5 μM for 1 hour
Protocol: Detection of DNA fragmentation in apoptotic cells by the TUNEL assay and immunoblot analyses of cytochrome c release were performed as described previously.
Once distributed into microsomal membranes, pivarubicin triggered rapid, mitochondrial-dependent apoptosis that was independent of cell cycle arrest. Marked release of cytochrome c into the cytosol as an indicator of mitochondrial depolarization and dysfunction is detected within 5 hours of drug treatment, while DNA fragmentation, as detected by TUNEL staining, is abundant by 6 hours.
In a study of Cytochrome c (Cyt C) release by pivarubicin (PIV) and control (C), 32D.3 cells were exposed to 5 μM pivarubicin for 1 hour, then incubated in drug-free medium for an additional 4 hours. Cells were then fractionated to isolate the cytosolic fraction, subjected to immunoblotting and treated with anti-cytochrome c monoclonal antibody (1:250) for 2 hours, followed by a 1-hour treatment with 1:1000 dilution of horseradish peroxidase-conjugated goat anti-mouse second antibody as described previously. Proteins were detected by chemiluminescence (FIG. 3A). […] Individual fields of cells were detected for both DNA 3′-end labeling (green: grayscale image in FIG. 3D) or total cellular DNA staining by propidium iodide (red: grayscale images in FIGS. 3C and 3E). […]

[1] = tested on: HL-60 human promyelocytic leukemia cells transfected with Bcl-XL; assay: Cytotoxicity in Bcl-XL transfected HL-60 cells; type: cell-based; details: 5 μM for 1 h, 72 h drug-free
Protocol: For the results shown in FIG. 5A, LNCaP cells transfected with Bcl-2 expression vector were assessed for doxorubicin or pivarubicin cytotoxicity, compared to cells transfected with empty vectors. Cells were exposed to 5 μM drug for 1 h, washed, and further incubated for 72 h in drug-free medium. Viability was determined by the MTT assay. For the results shown in FIG. 5B, pivarubicin cytotoxicity in HL-60 cells transfected with Bcr-Abl or Bcl-XL expression vectors were assessed for doxorubicin or pivarubicin cytotoxicity and compared as described for FIG. 5A.

[2] = tested on: 32D.3, J774.2 and 293 cells; assay: Biotransformation to AD 288 after uptake into cells; type: in vitro ADME; details: initial (1 hour), 1 μM
Excerpt: Intracellular drug was extracted and analyzed by fluorescence HPLC as described previously.

Compound: COc1cccc2c1C(=O)c1c(O)c3c(c(O)c1C2=O)C[C@@](O)(C(=O)COC(=O)C(C)(C)C)C[C@@H]3O[C@H]1C[C@H](NCc2ccccc2)[C@H](O)[C@H](C)O1 [Pivarubicin, N-Benzyladriamycin-14-pivalate]
- time to marked release of cytochrome c into the cytosol (32D.3 cells; then drug-free medium): ≤ 5 h
- DNA fragmentation detected by TUNEL staining (32D.3 cells; by 6 hours): abundant
- effect of Bcl-XL overexpression on rate of drug-induced apoptosis [1]: do not impede
- drug initially biotransformed [2]: less than 10%
